# Measured values reported in patent US8048892B2, “Azaquinolone based compounds exhibiting prolyl hydroxylase inhibitory activity, compositions, and uses thereof” (Amgen Inc., priority 2006, dated 2011).
# Structures can show the parent of a compound that is named as a salt.
# Target: HIF PHD2 (Homo sapiens, UniProt Q9GZT9)
# Test: PHD2 inhibition assay (TR-FRET, VCB-Eu detection of hydroxylated P564-HIF1α peptide)
# Format: biochemical
# Conditions: 2 nM PHD2, 100 nM P564-HIF1α peptide, 0.25 μM 2-oxoglutarate
# Method in brief: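 Human PHD2 (2 nM final) preincubated 1 h at room temperature with compound and 100 μM FeCl2 in pH 6 MES buffer, 5% DMSO final. Reaction with 100 nM biotinylated P564-HIF1α peptide, 2 mM ascorbate and 0.25 μM 2-oxoglutarate for 1 h, stopped with succinate. Hydroxylation read by TR-FRET (VCB-Eu/streptavidin-APC, 655/615 nm); IC50 from 4-parameter fit of percent of control.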
# Chain of HIF PHD2 (Q9GZT9 whole entry): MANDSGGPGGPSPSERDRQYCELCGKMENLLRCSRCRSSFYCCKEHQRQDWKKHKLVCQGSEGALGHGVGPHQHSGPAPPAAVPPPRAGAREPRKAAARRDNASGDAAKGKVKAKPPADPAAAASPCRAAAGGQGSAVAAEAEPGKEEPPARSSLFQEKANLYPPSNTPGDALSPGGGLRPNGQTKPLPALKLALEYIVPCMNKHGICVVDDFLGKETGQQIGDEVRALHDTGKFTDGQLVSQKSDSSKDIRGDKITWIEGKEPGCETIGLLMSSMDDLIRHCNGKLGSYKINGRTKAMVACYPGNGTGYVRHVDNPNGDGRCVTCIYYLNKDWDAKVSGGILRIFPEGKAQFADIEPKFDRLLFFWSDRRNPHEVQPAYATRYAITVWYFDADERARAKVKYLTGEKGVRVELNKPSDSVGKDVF
row,IC50 [nM],Structure (SMILES)
1,< 50,"Cn1c(=O)c(C(=O)NCC(=O)O)c(O)c2cc(C3CCOCC3)cnc21 [Example 34, 2-(4-Hydroxy-1-methyl-2-oxo-6-(tetrahydro-2 H-pyran-4-yl)-1,2-dihydro-1,8-naphthyridine-3-carboxamido)acetic acid]"
2,500 to 1000,"Cn1c(=O)c(C(=O)N[C@@H](CO)C(=O)O)c(O)c2cc(C3=CCCCC3)cnc21 [Example 133, (S)-2-(6-cyclohexenyl-4-hydroxy-1-methyl-2-oxo-1,2-dihydro-1,8-naphthyridine-3-carboxamido)-3-hydroxypropanoic acid]"
3,< 50,"Cn1c(=O)c(C(=O)NCC(=O)O)c(O)c2cc(C#CC(C)(C)C)cnc21 [Example 78, N-((6-(3,3-Dimethyl-1-butyn-1-yl)-4-hydroxy-1-methyl-2-oxo-1,2-dihydro-1,8-naphthyridin-3-yl)carbonyl)glycine]"
4,< 50,"Cn1c(=O)c(C(=O)NCC(=O)O)c(O)c2cc(-c3ccccc3)c(C(F)(F)F)nc21 [Example 90, 2-(4-Hydroxy-1-methyl-2-oxo-6-phenyl-7-(trifluoromethyl)-1,2-dihydro-1,8-naphthyridine-3-carboxamido)acetic acid]"
5,50 to 100,"Cn1c(=O)c(C(=O)NCC(=O)O)c(O)c2cc(C3CC3)c(C(F)(F)F)nc21 [Example 93, 2-(6-cyclopropyl-4-hydroxy-1-methyl-2-oxo-7-(trifluoromethyl)-1,2-dihydro-1,8-naphthyridine-3-carboxamido)acetic acid]"
6,50 to 100,"Cn1c(=O)c(C(=O)NCC(=O)O)c(O)c2cc(C3CCNCC3)ncc21 [Example 115, 2-(4-Hydroxy-1-methyl-2-oxo-6-(piperidin-4-yl)-1,2-dihydro-1,7-naphthyridine-3-carboxamido)acetic acid, Trifluoroacetic acid salt]"
7,< 50,"CN1CC=C(c2cc3c(O)c(C(=O)NCC(=O)O)c(=O)n(C)c3cn2)CC1 [Example 116, 2-(4-Hydroxy-1-methyl-6-(1-methyl-1,2,3,6-tetrahydropyridin-4-yl)-2-oxo-1,2-dihydro-1,7-naphthyridine-3-carboxamido)acetic acid, Trifluoroacetic acid salt]"
8,< 50,"CCc1cnc2c(c1)c(O)c(C(=O)NCC(=O)O)c(=O)n2C [Example 79, 2-(6-Ethyl-4-hydroxy-1-methyl-2-oxo-1,2-dihydro-1,8-naphthyridine-3-carboxamido)acetic acid]"
9,100 to 500,"CN1CCN(c2cc3c(O)c(C(=O)NCC(=O)O)c(=O)n(C)c3cn2)CC1 [Example 122, 2-(4-Hydroxy-1-methyl-6-(4-methylpiperazin-1-yl)-2-oxo-1,2-dihydro-1,7-naphthyridine-3-carboxamido)acetic acid, Trifluoroacetic acid salt]"
10,50 to 100,"Cn1c(=O)c(C(=O)NCC(=O)O)c(O)c2cc(-c3ccccc3C(F)(F)F)cnc21 [Example 42, N-((4-Hydroxy-1-methyl-2-oxo-6-(2-(trifluoromethyl)phenyl)-1,2-dihydro-1,8-naphthrydin-3-yl)carbonyl)glycine]"
11,50 to 100,"Cn1c(=O)c(C(=O)NCC(=O)O)c(O)c2cccnc21 [Example 76, 2-(4-Hydroxy-1-methyl-2-oxo-1,2-dihydro-1,8-naphthyridine-3-carboxamido)acetic acid]"
12,50 to 100,"CCCc1cnc2c(c1)c(O)c(C(=O)NCC(=O)O)c(=O)n2C [Example 83, 2-(4-Hydroxy-1-methyl-2-oxo-6-propyl-1,2-dihydro-1,8-naphthyridine-3-carboxamido)acetic acid]"
13,100 to 500,"CC#Cc1cnc2c(c1)c(O)c(C(=O)NCC(=O)O)c(=O)n2C [Example 84, 2-(4-Hydroxy-1-methyl-2-oxo-6-(prop-1-ynyl)-1,2-dihydro-1,8-naphthyridine-3-carboxamido)acetic acid]"
14,< 50,"Cn1c(=O)c(C(=O)NCC(=O)O)c(O)c2cc(C3CCCCC3)cnc21 [Example 66, 2-(6-Cyclohexyl-4-hydroxy-1-methyl-2-oxo-1,2-dihydro-1,8-naphthyridine-3-carboxamido)acetic acid]"
15,< 50,"Cn1c(=O)c(C(=O)NCC(=O)O)c(O)c2cc(CCC3CC3)cnc21 [Example 81, 2-(6-(2-Cyclopropylethyl)-4-hydroxy-1-methyl-2-oxo-1,2-dihydro-1,8-naphthyridine-3-carboxamido)acetic acid]"
16,< 50,"Cn1c(=O)c(C(=O)NCC(=O)O)c(O)c2ccc(C#CC3CC3)nc21 [Example 21, 2-(7-(2-Cyclopropylethynyl)-4-hydroxy-1-methyl-2-oxo-1,2-dihydro-1,8-naphthyridine-3-carboxamido)acetic acid]"

row,Structure (SMILES),IC50 [nM]
1,"Cn1c(=O)c(C(=O)NCC(=O)O)c(O)c2cc(C3CCOC3)c(C(F)(F)F)nc21 (single isomer, unassigned) [Example 104, (R)-2-(4-Hydroxy-1-methyl-2-oxo-6-(tetrahydrofuran-3-yl)-7-(trifluoromethyl)-1,2-dihydro-1,8-naphthyridine-3-carboxamido)acetic acid or (S)-2-(4-Hydroxy-1-methyl-2-oxo-6-(tetrahydrofuran-3-yl)-7-(trifluoromethyl)-1,2-dihydro-1,8-naphthyridine-3-carboxamido)acetic acid]",50 to 100
2,"Cn1c(=O)c(C(=O)NCC(=O)O)c(O)c2cc(C3CCOC3)c(C(F)(F)F)nc21 (single isomer, unassigned) [Example 103, (R)-2-(4-Hydroxy-1-methyl-2-oxo-6-(tetrahydrofuran-3-yl)-7-(trifluoromethyl)-1,2-dihydro-1,8-naphthyridine-3-carboxamido)acetic acid or (S)-2-(4-Hydroxy-1-methyl-2-oxo-6-(tetrahydrofuran-3-yl)-7-(trifluoromethyl)-1,2-dihydro-1,8-naphthyridine-3-carboxamido)acetic acid]",< 50
3,"Cn1c(=O)c(C(=O)NCC(=O)O)c(O)c2cc(C3CCCO3)c(C(F)(F)F)nc21 (single isomer, unassigned) [Example 101, (R)-2-(4-Hydroxy-1-methyl-2-oxo-6-(tetrahydrofuran-2-yl)-7-(trifluoromethyl)-1,2-dihydro-1,8-naphthyridine-3-carboxamido)acetic acid or (S)-2-(4-Hydroxy-1-methyl-2-oxo-6-(tetrahydrofuran-2-yl)-7-(trifluoromethyl)-1,2-dihydro-1,8-naphthyridine-3-carboxamido)acetic acid]",< 50
